Inconclusive results and toxic doses are left out. Rule as the data show it: active = T/C of 150% or more; inactive = T/C below 125%.
Tested on: L1210 leukemia ip in BDF1 mice, survival T/C
Experiment: NCI In Vivo Anticancer Drug Screen. Data for tumor model L1210 Leukemia (intraperitoneal) in B6D2F1 (BDF1) mice
Conditions: endpoint: mean survival time, higher = longer survival
Method in brief: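 Read-out is survival time, reported as the treated-group measurement over the vehicle-control measurement.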

[1] = dose: 25.0 mg/kg/injection, schedule: Q01DX009 (ip), vehicle: Klucel (hydroxypropylcellulose) (HPC)
[2] = dose: 50.0 mg/kg/injection, schedule: Q01DX009 (ip), vehicle: Klucel (hydroxypropylcellulose) (HPC)
[3] = dose: 100.0 mg/kg/injection, schedule: Q01DX009 (ip), vehicle: saline
[4] = dose: 100.0 mg/kg/injection, schedule: Q04DX003 (ip), vehicle: saline
[5] = dose: 200.0 mg/kg/injection, schedule: Q01DX009 (ip), vehicle: saline
[6] = dose: 200.0 mg/kg/injection, schedule: Q04DX003 (ip), vehicle: saline
[7] = dose: 400.0 mg/kg/injection, schedule: Q04DX003 (ip), vehicle: saline
[8] = dose: 100.0 mg/kg/injection, schedule: Q01DX001 (ip), vehicle: saline
[9] = dose: 200.0 mg/kg/injection, schedule: Q01DX001 (ip), vehicle: saline
[10] = dose: 400.0 mg/kg/injection, schedule: Q01DX001 (ip), vehicle: saline
[11] = dose: 100.0 mg/kg/injection, schedule: Q04DX003 (ip), vehicle: Klucel (hydroxypropylcellulose) (HPC)
[12] = dose: 200.0 mg/kg/injection, schedule: Q04DX003 (ip), vehicle: Klucel (hydroxypropylcellulose) (HPC)
[13] = dose: 400.0 mg/kg/injection, schedule: Q04DX003 (ip), vehicle: Klucel (hydroxypropylcellulose) (HPC)
[14] = dose: 100.0 mg/kg/injection, schedule: Q01DX009 (ip), vehicle: saline with Tween-80
[15] = dose: 100.0 mg/kg/injection, schedule: Q04DX003 (ip), vehicle: saline with Tween-80
[16] = dose: 200.0 mg/kg/injection, schedule: Q01DX009 (ip), vehicle: saline with Tween-80
[17] = dose: 200.0 mg/kg/injection, schedule: Q04DX003 (ip), vehicle: saline with Tween-80
[18] = dose: 400.0 mg/kg/injection, schedule: Q01DX009 (ip), vehicle: saline with Tween-80
[19] = dose: 400.0 mg/kg/injection, schedule: Q04DX003 (ip), vehicle: saline with Tween-80
[20] = dose: 400.0 mg/kg/injection, schedule: Q01DX009 (ip), vehicle: saline
[21] = dose: 100.0 mg/kg/injection, schedule: Q01DX009 (ip), vehicle: Klucel (hydroxypropylcellulose) (HPC)

Measured: T/C

C=C=[CH][Sn]([c]1ccccc1)([c]1ccccc1)[c]1ccccc1
inactive: dose: 12.5 mg/kg/injection, schedule: Q01DX009 (ip), vehicle: Klucel (hydroxypropylcellulose) (HPC) 100 % of control | dose: 12.5 mg/kg/injection, schedule: Q04DX003 (ip), vehicle: Klucel (hydroxypropylcellulose) (HPC) 99 % of control | [1] 102 % of control | dose: 25.0 mg/kg/injection, schedule: Q04DX003 (ip), vehicle: Klucel (hydroxypropylcellulose) (HPC) 106 % of control | [2] 89 % of control | dose: 50.0 mg/kg/injection, schedule: Q04DX003 (ip), vehicle: Klucel (hydroxypropylcellulose) (HPC) 99 % of control

O=C1C[C@@H]2OCC=C3C[N+]4([O-])CC[C@]56c7ccccc7N1[C@H]5[C@H]2[C@H]3C[C@@H]64 (some centres undefined)
inactive: dose: 150.0 mg/kg/injection, schedule: Q01DX001 (ip), vehicle: saline 106 % of control

CCCCCCCCC(=O)CCCCC
inactive: [3] 92 % of control | [4] 101 % of control | [5] 94 % of control | [6] 105 % of control | [7] 100 % of control

Cc1noc(NS(=O)(=O)c2ccc(N=Nc3ccc(N)nc3N)cc2)c1C
inactive: [8] 105 % of control | [9] 98 % of control | [10] 100 % of control

CC(C)N=Cc1ccccc1O.CC(C)N=Cc1ccccc1O.[Zn]
inactive: dose: 100.0 mg/kg/injection, schedule: Q01DX009 (ip), vehicle: saline sonified 91 % of control | [11] 88 % of control | dose: 200.0 mg/kg/injection, schedule: Q01DX009 (ip), vehicle: saline sonified 92 % of control | [12] 89 % of control | dose: 400.0 mg/kg/injection, schedule: Q01DX009 (ip), vehicle: saline sonified 96 % of control | [13] 93 % of control

Cc1cc(N)n(C(N)=O)n1
inactive: [14] 102 % of control | [15] 106 % of control | [16] 110 % of control | [17] 107 % of control | [18] 108 % of control | [19] 109 % of control

CCN(CC)C(=O)Nc1ccc(O)c(C(=O)O)c1
inactive: [8] 98 % of control | [9] 95 % of control | [10] 96 % of control

CN=C1c2ccccc2C2(c3ccccc3)C1N2C (centres undefined)
inactive: [14] 95 % of control | dose: 100.0 mg/kg/injection, schedule: Q04DX003 (ip), vehicle: saline sonified 121 % of control | [16] 94 % of control | dose: 200.0 mg/kg/injection, schedule: Q04DX003 (ip), vehicle: saline sonified 108 % of control | dose: 400.0 mg/kg/injection, schedule: Q04DX003 (ip), vehicle: saline sonified 101 % of control

COc1ccc2c(c1)C1(C)CCCC(C)(C(=O)O)C1C(Br)C2=O (centres undefined)
inactive: [8] 104 % of control | [9] 101 % of control | [10] 102 % of control

CN(C)/C=C(/C#N)C(=O)N1CCCC1
inactive: [3] 106 % of control | [4] 101 % of control | [5] 102 % of control | [6] 101 % of control | [20] 112 % of control | [7] 117 % of control

CN(C(=S)SSC(=S)N(C)c1ccccc1)c1ccccc1
inactive: [1] 96 % of control | [2] 101 % of control | [21] 101 % of control | [11] 105 % of control | [12] 89 % of control | [13] 93 % of control

O=C1C2C3CCC(CC3)C2C(O)C2C3CCC(C3)C12 (centres undefined)
inactive: dose: 50.0 mg/kg/injection, schedule: Q01DX009 (ip), vehicle: saline with Tween-80 93 % of control | [14] 96 % of control | [16] 93 % of control

Cc1cccc(Cl)c1NC(=O)c1cc([N+](=O)[O-])cc([N+](=O)[O-])c1
inactive: [21] 100 % of control | dose: 200.0 mg/kg/injection, schedule: Q01DX009 (ip), vehicle: Klucel (hydroxypropylcellulose) (HPC) 96 % of control

C/C(=C\c1ccc([N+](=O)[O-])cc1)C(=O)Nc1ccc(S(=O)(=O)F)cc1
inactive: [14] 95 % of control | [16] 93 % of control | [18] 98 % of control

O=c1[nH][nH]c(=S)c(=O)[nH]1
inactive: [8] 102 % of control | [9] 98 % of control | [10] 104 % of control

O=S(=O)(O)c1ccccc1/C=N\N=C\c1ccccc1S(=O)(=O)O
inactive: [3] 107 % of control | [4] 107 % of control | [5] 112 % of control | [6] 107 % of control | dose: 265.0 mg/kg/injection, schedule: Q04DX003 (ip), vehicle: saline 107 % of control | [20] 105 % of control | [7] 104 % of control | dose: 600.0 mg/kg/injection, schedule: Q04DX003 (ip), vehicle: saline 93 % of control

CN1C(=O)c2c(Cl)c(Cl)c(Cl)c(Cl)c2C1=O
inactive: dose: 222.0 mg/kg/injection, schedule: Q01DX Z (ip), vehicle: methylcellulose (MC) 105 % of control | dose: 333.0 mg/kg/injection, schedule: Q01DX Z (ip), vehicle: methylcellulose (MC) 105 % of control | dose: 500.0 mg/kg/injection, schedule: Q01DX Z (ip), vehicle: methylcellulose (MC) 98 % of control

OCP(CO)CO.[Cl][Hg][Cl]
inactive: dose: 30.0 mg/kg/injection, schedule: Q01DX001 (ip), vehicle: saline 119 % of control

C=C1OC(=O)OC1(C)CC(OC)OC (centres undefined)
inactive: [14] 101 % of control | [15] 94 % of control | [16] 95 % of control | [17] 92 % of control | [18] 98 % of control | [19] 92 % of control

COc1cc(Nc2nc(N)ncc2[N+](=O)[O-])cc(OC)c1OC
inactive: [15] 92 % of control | [17] 87 % of control | [19] 88 % of control

Oc1c(C(c2ccccc2)N2CCCC2)ccc2ccccc12 (centres undefined)
inactive: dose: 75.0 mg/kg/injection, schedule: Q04DX003 (ip), vehicle: saline with Tween-80 100 % of control | dose: 150.0 mg/kg/injection, schedule: Q04DX003 (ip), vehicle: saline with Tween-80 92 % of control | dose: 300.0 mg/kg/injection, schedule: Q04DX003 (ip), vehicle: saline with Tween-80 96 % of control

O=C1OCc2cc[n+]([O-])cc21
inactive: dose: 100.0 mg/kg/injection, schedule: Q01DX001 (ip), vehicle: carboxymethylcellulose (CMC) 97 % of control | dose: 200.0 mg/kg/injection, schedule: Q01DX001 (ip), vehicle: carboxymethylcellulose (CMC) 96 % of control | dose: 400.0 mg/kg/injection, schedule: Q01DX001 (ip), vehicle: carboxymethylcellulose (CMC) 107 % of control

C=COC(=O)Sc1c(Cl)c(Cl)c(Cl)c(Cl)c1Cl
inactive: dose: 50.0 mg/kg/injection, schedule: Q01DX001 (ip), vehicle: saline 100 % of control | [8] 97 % of control | [9] 103 % of control | [10] 92 % of control

O=C(O)c1cc(-c2cccs2)c(C(=O)O)s1
inactive: dose: 100.0 mg/kg/injection, schedule: Q04DX003 (ip), vehicle: other 103 % of control | dose: 200.0 mg/kg/injection, schedule: Q04DX003 (ip), vehicle: other 93 % of control

Source: PubChem BioAssay AID248 (DTP/NCI, 2004)
